This is an account of results in ChEMBL document CHEMBL1154328, “New inhibitors of the complement system inspired in K76-COOH. A SAR study of filifolinol derivatives through modifications of the C3' position” (Bioorg Med Chem Lett, 2009).

pIC50: −log10 of the molar value.

The nature of one assay: Inhibition of serum complement system-mediated hemolysis of human RBCs.
Conditions: not given; call rule not given here
Regarding `C[C@H]1CCCC(C)(C)[C@@]12Cc1cc(C(=O)O)ccc1O2`, the IC50 result was “Not Active”.

The assay is the same for the next values; noted with them: read-out: IC50.
One may read the pIC50 as −log10 of the IC50, conventionally taken in molar units. Take `CCCO[C@@H]1CC[C@H](C)[C@]2(Cc3cc(C(=O)O)ccc3O2)C1(C)C`: the negative logarithm of the IC50 (pIC50) is 3.26.
Turning to `CC1=CC[C@H]([C@]2(C)Cc3c(O)ccc(C(=O)O)c3O2)CC1`, the negative logarithm of the IC50 (pIC50) is 2.67.
Consider `C[C@H]1CC[C@@H](O)C(C)(C)[C@@]12Cc1cc(C(=O)O)ccc1O2`, for which the pIC50 is 3.29.
Still for that read-out and setting: in the case of `C[C@H]1CC[C@@](O)(CC(O)CO)C(C)(C)[C@@]12Cc1cc(C(=O)O)ccc1O2` (stereo partly specified) [listing 1 of 2 here] it was 3.32.
Same read-out and setting: the value for `CCCN[C@H]1CC[C@H](C)[C@]2(Cc3cc(C(=O)O)ccc3O2)C1(C)C` was 2.56; that for `CCCN[C@@H]1CC[C@H](C)[C@]2(Cc3cc(C(=O)O)ccc3O2)C1(C)C` was 3.68; that for `COC(=O)c1ccc2c(c1)C[C@@]1(O2)[C@@H](C)CC[C@@H](O)C1(C)C` [FILIFOLINOL] was 2.70.
Regarding `COc1ccc(C(=O)O)c2c1C[C@@](C)([C@@H]1CC[C@](C)(O)[C@H](O)C1)O2`, the pIC50 was 2.80.
`C[C@H]1CC[C@@H](OCCO)C(C)(C)[C@@]12Cc1cc(C(=O)O)ccc1O2`: the pIC50 is 2.36.
As for `C[C@H]1CC[C@@H](OCC(O)CO)C(C)(C)[C@@]12Cc1cc(C(=O)O)ccc1O2` (stereo partly specified), the negative-log IC50 (pIC50) is 2.33.
As for `C[C@@H]1CCC2C(C)(C)[C@H](O)[C@H](O)C[C@]2(C)[C@@]12Cc1c(O)cc(C(=O)O)c(C=O)c1O2` (stereo partly specified), the negative logarithm of the IC50 (pIC50) is 3.24.
Consider `COc1ccc(C(=O)O)c2c1C[C@@](C)([C@H]1CC=C(C)CC1)O2`, for which the negative logarithm of the IC50 (pIC50) is 3.17.
`C[C@H]1CC[C@H](O)C(C)(C)[C@@]12Cc1cc(C(=O)O)ccc1O2`: the negative logarithm of the IC50 (pIC50) was 1.92.
`C=CCO[C@@H]1CC[C@H](C)[C@]2(Cc3cc(C(=O)O)ccc3O2)C1(C)C`: the negative-log IC50 (pIC50) was 2.51.
Take `C[C@H]1CC[C@@](O)(CC(O)CO)C(C)(C)[C@@]12Cc1cc(C(=O)O)ccc1O2` (stereo partly specified) [listing 2 of 2 here]: the pIC50 was 2.48.
